The source of these data is US8242275B2, “Bicyclic pyrazole compounds as antibacterial agents” (Janssen Pharmaceutica NV, priority 2005, dated 2012).

What is called IC50 is the concentration that inhibits the measured activity by half. Broadly, the MIC is the lowest concentration that inhibits growth of the organism.

In brackets after ≈: the same amount, converted by molar mass.

The target of assay [1] is T1, E. coli DNA gyrase (Escherichia coli, UniProt P0AES4+P0AES6).
T1 construct: purchased John Innes Enterprises Ltd. (John Innes Centre, UK)
T1 sequence (P0AES4 whole entry, one chain of several): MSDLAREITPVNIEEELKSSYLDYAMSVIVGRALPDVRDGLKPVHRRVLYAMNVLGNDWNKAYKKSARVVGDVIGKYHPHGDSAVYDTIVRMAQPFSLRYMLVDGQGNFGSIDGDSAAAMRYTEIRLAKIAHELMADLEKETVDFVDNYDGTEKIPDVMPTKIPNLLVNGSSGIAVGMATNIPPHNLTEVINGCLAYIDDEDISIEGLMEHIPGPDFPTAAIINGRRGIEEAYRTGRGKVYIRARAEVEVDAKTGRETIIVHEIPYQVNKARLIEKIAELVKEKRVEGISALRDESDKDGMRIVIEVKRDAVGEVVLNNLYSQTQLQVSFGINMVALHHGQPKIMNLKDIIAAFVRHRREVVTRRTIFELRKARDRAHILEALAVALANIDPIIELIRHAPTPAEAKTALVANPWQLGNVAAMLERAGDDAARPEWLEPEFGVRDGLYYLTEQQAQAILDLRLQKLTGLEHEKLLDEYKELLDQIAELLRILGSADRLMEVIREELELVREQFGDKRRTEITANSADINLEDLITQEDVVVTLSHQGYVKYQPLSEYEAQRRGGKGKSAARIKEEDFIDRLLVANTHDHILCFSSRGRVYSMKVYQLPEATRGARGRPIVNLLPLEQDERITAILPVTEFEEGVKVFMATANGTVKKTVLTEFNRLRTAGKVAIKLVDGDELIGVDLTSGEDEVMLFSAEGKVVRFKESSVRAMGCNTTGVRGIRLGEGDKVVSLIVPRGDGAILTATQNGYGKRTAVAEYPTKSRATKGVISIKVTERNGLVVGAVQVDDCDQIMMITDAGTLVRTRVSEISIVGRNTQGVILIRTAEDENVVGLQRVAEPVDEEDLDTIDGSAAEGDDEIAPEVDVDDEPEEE
As to the kind of experiment: DNA gyrase inhibition assay (supercoiling). Type of assay: biochemical. The settings on record: E. coli DNA gyrase supercoiling, visual inspection of gels; read-out: DNA Gyrase IC50 (converted). The protocol: Inhibition of the supercoiling activity of E. coli DNA gyrase was determined using enzymes, buffers and substrates received from John Innes Enterprises Ltd. (John Innes Centre, UK). The reactions were performed according to the manufacturer's directions, with the following modifications.
DNA supercoiling reactions were carried out in a total reaction volume of 20 μL containing 250 ng of relaxed pBR322, 35 mM Tris-HCl (pH 7.5), 24 mM KCl, 4 mM MgCl2, 2 mM dithiothreitol, 1.8 mM spermidine, 1 mM ATP, 6.5% glycerol and 100 μg/mL albumin. Compounds diluted in 10% DMSO were added to the reaction mixture to reach a final concentration of 0.5% DMSO. Enzyme was diluted to […] in a solution of 50 mM Tris-HCl (pH 7.5), 100 mM KCl, 2 mM dithiothreitol, 1 mM EDTA, and 50% glycerol. Diluted enzyme (0.2 unit) was added to each reaction.
The reactions were incubated at 37° C. for 30 min. The reactions were then cooled to 0° C., followed by addition of 3 μL of 40% glycerol, 100 mM Tris-HCl (pH 7.5), 50 mM EDTA, 0.5% SDS and 0.1% bromophenol blue. Samples were separated on 1.0% agarose gels. Gels were stained with Ethidium bromide and photographed with a Stratagene Eagle Eye II.

Assay [2] has as its system S. pneumoniae ATCC49619. As to the kind of experiment: In vitro antibacterial activity (MIC assay), broth microdilution. Format: cell-based. The following applies: Streptococcus pneumoniae, ATCC49619; read-out: S. pneumoniae ATCC49619 MIC. The essentials: (§1)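 Bacteria at roughly 5×10^5 CFU/mL final were grown 16–24 h at 35° C in wells holding 2-fold serial dilutions (11 points) of compound prepared in 100% DMSO, following NCCLS M7-A5. MIC, in μg/mL, is the concentration that stops visible growth relative to untreated wells.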
On the technique in general: Broth dilution looks for growth in wells or tubes with falling amounts of substance.

For assay [3], the system named is S. aureus ATCC13709. Described as above. Format: cell-based. The following applies: Staphylococcus aureus, ATCC13709; read-out: S. aureus ATCC13709 MIC. The essentials: as §1
For assay [4], the system named is E. coli KL-16 (GSC strain 4245). The assay is described as above. Type of assay: cell-based. The following applies: Escherichia coli. An outline of the steps: as §1

`COc1ccc2nccc(-n3cc4c(n3)CCC(NCC(=O)Nc3ccc(C)cc3)C4)c2n1` (centres unmarked) [Example 60, 2-[2-(6-Methoxy-[1,5]naphthyridin-4-yl)-4,5,6,7-tetrahydro-2H-indazol-5-ylamino]-N-p-tolyl-acetamide]: in assay [1], the IC50 was greater than 36.2 µM. Besides, the values for the minimal inhibitory concentration (MIC) in assay [2], in assay [3] and in assay [4] were 8 µg/mL (≈ 18.1 µM), 1 µg/mL (≈ 2.26 µM) and greater than 128 µg/mL, respectively.

On to `COc1ccc2nccc(-n3cc4c(n3)CCC(NCC(=O)Nc3cc(F)cc(F)c3)C4)c2c1` (centres unmarked) [Example 61, N-(3,5-Difluoro-phenyl)-2-[2-(6-methoxy-quinolin-4-yl)-4,5,6,7-tetrahydro-2H-indazol-5-ylamino]-acetamide], for which the half-inhibitory concentration (IC50) in assay [1] was 4.32 µM. The MIC in assay [2] was 8 µg/mL (≈ 17.3 µM); in assay [3], 0.5 µg/mL (≈ 1.08 µM); in assay [4], 16 µg/mL (≈ 34.5 µM).

With `COc1ccc2nccc(-n3cc4c(n3)CCC(NCCOc3ccccc3)C4)c2n1` (centres unmarked) [Example 65, [2-(6-Methoxy-[1,5]naphthyridin-4-yl)-4,5,6,7-tetrahydro-2H-indazol-5-yl]-(2-phenoxy-ethyl)-amine], in assay [1], the IC50 is 2.41 µM. Moreover, the minimal inhibitory concentration (MIC) in assay [2] was 1 µg/mL (≈ 2.41 µM); in assay [3] it was 0.5 µg/mL (≈ 1.2 µM); in assay [4], greater than 128 µg/mL.

As for `COc1ccc2nccc(-n3cc4c(n3)CCC(N(Cc3ccccc3)Cc3ccc5c(c3)NC(=O)CS5)C4)c2n1` (centres unmarked) [Example 66, 6-({Benzyl-[2-(6-methoxy-[1,5]naphthyridin-4-yl)-4,5,6,7-tetrahydro-2H-indazol-5-yl]amino}-methyl)-4H-benzo[1,4]thiazin-3-one], the IC50 in assay [1] was 3.55 µM. Also, the MIC in assay [2] is greater than 128 µg/mL; in assay [3], 8 µg/mL (≈ 14.2 µM); in assay [4], greater than 128 µg/mL.

As for `COc1ccc2nccc(-n3cc4c(n3)CCC(N(CC(=O)OC(C)(C)C)Cc3ccc5c(c3)NC(=O)CS5)C4)c2n1` (centres unmarked) [Example 67, [[2-(6-Methoxy-[1,5]naphthyridin-4-yl)-4,5,6,7-tetrahydro-2H-indazol-5-yl]-(3-oxo-3,4-dihydro-2H-benzo[1,4]thiazin-6-ylmethyl)-amino]-acetic acid tert-butyl ester], in assay [1], the IC50 was greater than 13.6 µM. Also, the MIC in assay [2] is 64 µg/mL (≈ 109 µM); in assay [3], 4 µg/mL (≈ 6.82 µM); in assay [4], greater than 128 µg/mL.

For `COc1ccc2nccc(-n3cc4c(n3)CCC(N(CC(=O)O)Cc3ccc5c(c3)NC(=O)CS5)C4)c2n1` (centres unmarked) [Example 68, [[2-(6-Methoxy-[1,5]naphthyridin-4-yl)-4,5,6,7-tetrahydro-2H-indazol-5-yl]-(3-oxo-3,4-dihydro-2H-benzo[1,4]thiazin-6-ylmethyl)-amino]-acetic acid], the IC50 in assay [1] is 1.88 µM. The MIC in assay [2] is 8 µg/mL (≈ 15.1 µM); in assay [3] it was 8 µg/mL (≈ 15.1 µM); in assay [4] it was greater than 128 µg/mL.

On to `COc1ccc2nccc(-n3cc4c(n3)CCC(NC(=O)c3ccc5c(c3)N(C)C(=O)CS5)C4)c2n1` (centres unmarked) [Example 69, 4-Methyl-3-oxo-3,4-dihydro-2H-benzo[1,4]thiazine-6-carboxylic acid [2-(6-methoxy-[1,5]naphthyridin-4-yl)-4,5,6,7-tetrahydro-2H-indazol-5-yl]-amide], for which, in assay [1], the IC50 was greater than 7.99 µM. Besides, the MIC in assay [2] is 64 µg/mL (≈ 128 µM); in assay [3], 4 µg/mL (≈ 7.99 µM); in assay [4], greater than 128 µg/mL.

As to `COc1ccc2nccc(-n3cc4c(n3)CCC(NC(=O)c3ccc(Br)s3)C4)c2c1` (centres unmarked) [Example 72, 5-Bromo-thiophene-2-carboxylic acid [2-(6-methoxy-quinolin-4-yl)-4,5,6,7-tetrahydro-2H-indazol-5-yl]-amide], the IC50 in assay [1] is greater than 33.1 µM. The figures for the MIC in assay [2], in assay [3] and in assay [4] were greater than 128 µg/mL, 2 µg/mL (≈ 4.14 µM) and greater than 128 µg/mL, respectively.

Take `COc1ccc2nccc(-n3cc4c(n3)CCC(NC(=O)c3ccc(C(C)=O)s3)C4)c2c1` (centres unmarked) [Example 73, 5-Acetyl-thiophene-2-carboxylic acid [2-(6-methoxy-quinolin-4-yl)-4,5,6,7-tetrahydro-2H-indazol-5-yl]-amide]: the IC50 in assay [1] was greater than 35.8 µM. Besides, the MIC in assay [2] is 64 µg/mL (≈ 143 µM); in assay [3], 4 µg/mL (≈ 8.96 µM); in assay [4], greater than 128 µg/mL.

For the compound `COc1ccc2nccc(-n3cc4c(n3)CCC(NC(=O)c3cc5cc(F)c(F)cc5[nH]3)C4)c2c1` (centres unmarked) [Example 74, 5,6-Difluoro-1H-indole-2-carboxylic acid [2-(6-methoxy-quinolin-4-yl)-4,5,6,7-tetrahydro-2H-indazol-5-yl]-amide], the IC50 in assay [1] was 4.22 µM. The MIC in assay [2] is 8 µg/mL (≈ 16.9 µM); in assay [3], 1 µg/mL (≈ 2.11 µM); in assay [4], greater than 128 µg/mL.

With `COc1ccc2nccc(-n3cc4c(n3)CCC(NC(=O)c3cc5cc(C)ccc5[nH]3)C4)c2c1` (centres unmarked) [Example 75, 5-Methyl-1H-indole-2-carboxylic acid [2-(6-methoxy-quinolin-4-yl)-4,5,6,7-tetrahydro-2H-indazol-5-yl]-amide], the IC50 in assay [1] is greater than 35.4 µM. The figures for the MIC in assay [2], in assay [3] and in assay [4] were 16 µg/mL (≈ 35.4 µM), 4 µg/mL (≈ 8.86 µM) and greater than 128 µg/mL, respectively.

On to `COc1ccc2nccc(-n3cc4c(n3)CCC(NC(=O)c3cc5cc(Cl)ccc5[nH]3)C4)c2c1` (centres unmarked) [Example 77, 5-Chloro-1H-indole-2-carboxylic acid [2-(6-methoxy-quinolin-4-yl)-4,5,6,7-tetrahydro-2H-indazol-5-yl]-amide], for which the IC50 in assay [1] was greater than 33.9 µM. For the same compound, the MIC in assay [2] was 16 µg/mL (≈ 33.9 µM); in assay [3] it was 2 µg/mL (≈ 4.24 µM); in assay [4], greater than 128 µg/mL.

For `COc1ccc2nccc(-n3cc4c(n3)CCC(NC(=O)c3cccnc3Cl)C4)c2c1` (centres unmarked) [Example 78, 2-Chloro-N-[2-(6-methoxy-quinolin-4-yl)-4,5,6,7-tetrahydro-2H-indazol-5-yl]-nicotinamide], the IC50 in assay [1] is greater than 36.9 µM. Also, the minimum inhibitory concentration (MIC) in assay [2] was greater than 128 µg/mL; in assay [3], 16 µg/mL (≈ 36.9 µM); in assay [4] it was greater than 128 µg/mL.

Consider `COc1ccc2nccc(-n3cc4c(n3)CCC(NC(=O)c3ccc5c(c3)OCCN5C)C4)c2c1` (centres unmarked) [Example 79, 4-Methyl-3,4-dihydro-2H-benzo[1,4]oxazine-7-carboxylic acid [2-(6-methoxy-quinolin-4-yl)-4,5,6,7-tetrahydro-2H-indazol-5-yl]-amide], for which, in assay [1], the IC50 was greater than 34.1 µM. The MIC in assay [2] was 8 µg/mL (≈ 17 µM); in assay [3] it was 4 µg/mL (≈ 8.52 µM); in assay [4], greater than 128 µg/mL.

Consider `CCN(CC)c1ccc(CNC2CCc3nn(-c4ccnc5ccc(OC)nc45)cc3C2)cc1` (centres unmarked) [Example 85, (4-Diethylamino-benzyl)-[2-(6-methoxy-[1,5]naphthyridin-4-yl)-4,5,6,7-tetrahydro-2H-indazol-5-yl]-amine], for which the IC50 in assay [1] is 4.38 µM. Further, the MIC turned out to be 8 µg/mL (≈ 17.5 µM) in assay [2], 8 µg/mL (≈ 17.5 µM) in assay [3] and 64 µg/mL (≈ 140 µM) in assay [4].

With `COc1ccc2nccc(-n3cc4c(n3)CCC(NCc3ccc(N5CCCCC5)cc3)C4)c2n1` (centres unmarked) [Example 86, [2-(6-Methoxy-[1,5]naphthyridin-4-yl)-4,5,6,7-tetrahydro-2H-indazol-5-yl]-(4-piperidin-1-yl-benzyl)-amine], in assay [1], the IC50 is 4.27 µM. Moreover, the MIC in assay [2] was 4 µg/mL (≈ 8.54 µM); in assay [3], 4 µg/mL (≈ 8.54 µM); in assay [4] it was greater than 128 µg/mL.

In the case of `COc1ccc2nccc(-n3cc4c(n3)CCC(NCc3ccc(N5CCCC5)cc3)C4)c2n1` (centres unmarked) [Example 87, [2-(6-Methoxy-[1,5]naphthyridin-4-yl)-4,5,6,7-tetrahydro-2H-indazol-5-yl]-(4-pyrrolidin-1-yl-benzyl)-amine], the IC50 in assay [1] was 4.4 µM. The minimal inhibitory concentration (MIC) in assay [2] is 8 µg/mL (≈ 17.6 µM); in assay [3], 2 µg/mL (≈ 4.4 µM); in assay [4] it was 64 µg/mL (≈ 141 µM).

Consider `COc1ccc2nccc(-n3cc4c(n3)CCC(NC(=O)/C=C/c3ccc(Cl)cc3)C4)c2n1` (centres unmarked) [Example 90, 3-(4-Chloro-phenyl)-N-[2-(6-methoxy-[1,5]naphthyridin-4-yl)-4,5,6,7-tetrahydro-2H-indazol-5-yl]-acrylamide], for which the half-maximal inhibitory concentration (IC50) in assay [1] was greater than 34.8 µM. Besides, the MIC in assay [2] is greater than 128 µg/mL; in assay [3], 0.5 µg/mL (≈ 1.09 µM); in assay [4], greater than 128 µg/mL.

Take `COc1ccc2nccc(-n3cc4c(n3)CCC(NC(=O)/C=C/c3cc(F)ccc3C(F)(F)F)C4)c2n1` (centres unmarked) [Example 91, 3-(5-Fluoro-2-trifluoromethyl-phenyl)-N-[2-(6-methoxy-[1,5]naphthyridin-4-yl)-4,5,6,7-tetrahydro-2H-indazol-5-yl]-acrylamide]: in assay [1], the IC50 is greater than 31.3 µM. Further, the MIC was greater than 128 µg/mL in assay [2], 4 µg/mL (≈ 7.82 µM) in assay [3] and greater than 128 µg/mL in assay [4].

Take `COc1ccc2nccc(-n3cc4c(n3)CCC(NC(=O)/C=C/c3ccc(Cl)c(Cl)c3)C4)c2n1` (centres unmarked) [Example 92, 3-(3,4-Dichloro-phenyl)-N-[2-(6-methoxy-[1,5]naphthyridin-4-yl)-4,5,6,7-tetrahydro-2H-indazol-5-yl]-acrylamide]: the IC50 in assay [1] is greater than 32.4 µM. Also, the MIC is greater than 128 µg/mL in assay [2], 0.5 µg/mL (≈ 1.01 µM) in assay [3] and greater than 128 µg/mL in assay [4].
